Key:
[1] = system: total HDAC enzyme (HeLa extract); assay: In vitro inhibition of total HDAC enzyme activity (HDAC Fluorimetric Assay/Drug Discovery Kit); assay type: biochemical
Experimental: Measurement of In Vitro Inhibition of Total HDAC Enzyme Activity:
The in vitro inhibition of total HDAC enzyme was determined by HDAC Fluorimetric Assay/Drug Discovery Kit (BIOMOL) according to manufacture's instruction. • 1. Add Assay buffer, diluted trichostatin A or test inhibitor to appropriate wells of the microtiter plate. Following table lists examples of various assay types and the additions required for each test.
• 2. Add diluted HeLa extract or other HDAC sample to all wells except those that are to be “No Enzyme Controls” (Blank). • 3. Allow diluted Fluor de Lys™ Substrate and the samples in the microtiter plate to equilibrate to assay temperature (25° C.). • 4. Initiate HDAC reactions by adding diluted substrate (25 μl) to each well and mixing thoroughly. • 5. Allow HDAC reactions to proceed for desired length of time and then stop them by addition of Fluor de Lys™ Developer (50 μl). Incubate plate at room temperature (25° C.) for 10-15 min. • 6. Read samples in a microtiter-plate reading fluorimeter capable of excitation at a wavelength in the range 350-380 nm and detection of emitted light in the range 440-460 nm. Measurement of In Vivo Inhibition of HDAC Subtype Activity: […]

[2] = target: T1, human PDGFRβ (Homo sapiens, UniProt P09619); assay: PDGF dependent cell proliferation (MTS); assay type: cell-based; conditions: PDGFRβ NIH-3T3 cells, PDGF BB 50 ng/ml, 72 hours, serum-free medium; read-out: GI50 nM (PDGF ligand-dependent cell proliferation)
T1 construct: expressed in transfected cells
Experimental: PDGF Dependent Cell Proliferation:
NIH-3T3 mouse fibroblasts cell line engineered to stably express human PDGFIRβ was constructed and used to evaluate PDGF dependent cell proliferation. PDGFRβ NIH-3T3 cells were plated into 96-well plates at 5,000 per well and incubated with serum-free medium for 24 hours. Compounds and PDGF BB (50 ng/ml) were added and incubated for 72 hours in serum-free medium. The effects on proliferation were determined by addition of MTS reagent (Promega) according to the instruction, incubation for 2 hours at 37° C. in CO2 incubator, and record the absorbance at 490 nm using an ELISA plate reader.

[3] = system: Class I HDAC; assay: P21 reporter gene assay in HeLa cells; assay type: cell-based; conditions: 24 hours
Experimental: HDAC subtype selectivity inhibition assay of tested compounds was carried out by several reporter gene assays experiments. Briefly, HeLa cells were seeded in 96-well plates the day before transfection to give a confluence of 50-80%. Cells were transfected with one of reporter gene plasmid containing a promoter sequence or response element upstream of a luciferase gene construct using FuGene6 transfection reagent according to the manufacturer's instruction (Roche). The promoters or response elements including p21-promoter was fused upstream to the luciferase gene reporter construct. For normalizing the transfection efficiency, a GFP expression plasmid was cotransfected. Cells were allowed to express protein for 24 hours followed by addition of individual compounds or the vehicle (DMSO). 24 hours later the cells were harvested, and the luciferase assay and GFP assay were performed using corresponding assay kits according to the manufacturer's instructions (Promega).

[4] = system: HUVEC cells; assay: VEGF dependent cell proliferation (MTS); assay type: cell-based; conditions: Homo sapiens, VEGF 165 50 ng/ml, 72 hours, serum-free medium, read-out: GI50 nM (VEGF ligand-dependent cell proliferation)
Experimental: VEGF Dependent Cell Proliferation:
HUVEC cells were plated into 96-well plates at 6,000 per well and incubated with serum-free medium for 2 hours. Compounds and VEGF 165 (50 ng/ml) were added and incubated for 72 hours in serum-free medium. The effects on proliferation were determined by addition of MTS reagent (Promega) according to the instruction, incubation for 2 hours at 37° C. in CO2 incubator, and record the absorbance at 490 nm using an ELISA plate reader.

T1 sequence (P09619 33-1106): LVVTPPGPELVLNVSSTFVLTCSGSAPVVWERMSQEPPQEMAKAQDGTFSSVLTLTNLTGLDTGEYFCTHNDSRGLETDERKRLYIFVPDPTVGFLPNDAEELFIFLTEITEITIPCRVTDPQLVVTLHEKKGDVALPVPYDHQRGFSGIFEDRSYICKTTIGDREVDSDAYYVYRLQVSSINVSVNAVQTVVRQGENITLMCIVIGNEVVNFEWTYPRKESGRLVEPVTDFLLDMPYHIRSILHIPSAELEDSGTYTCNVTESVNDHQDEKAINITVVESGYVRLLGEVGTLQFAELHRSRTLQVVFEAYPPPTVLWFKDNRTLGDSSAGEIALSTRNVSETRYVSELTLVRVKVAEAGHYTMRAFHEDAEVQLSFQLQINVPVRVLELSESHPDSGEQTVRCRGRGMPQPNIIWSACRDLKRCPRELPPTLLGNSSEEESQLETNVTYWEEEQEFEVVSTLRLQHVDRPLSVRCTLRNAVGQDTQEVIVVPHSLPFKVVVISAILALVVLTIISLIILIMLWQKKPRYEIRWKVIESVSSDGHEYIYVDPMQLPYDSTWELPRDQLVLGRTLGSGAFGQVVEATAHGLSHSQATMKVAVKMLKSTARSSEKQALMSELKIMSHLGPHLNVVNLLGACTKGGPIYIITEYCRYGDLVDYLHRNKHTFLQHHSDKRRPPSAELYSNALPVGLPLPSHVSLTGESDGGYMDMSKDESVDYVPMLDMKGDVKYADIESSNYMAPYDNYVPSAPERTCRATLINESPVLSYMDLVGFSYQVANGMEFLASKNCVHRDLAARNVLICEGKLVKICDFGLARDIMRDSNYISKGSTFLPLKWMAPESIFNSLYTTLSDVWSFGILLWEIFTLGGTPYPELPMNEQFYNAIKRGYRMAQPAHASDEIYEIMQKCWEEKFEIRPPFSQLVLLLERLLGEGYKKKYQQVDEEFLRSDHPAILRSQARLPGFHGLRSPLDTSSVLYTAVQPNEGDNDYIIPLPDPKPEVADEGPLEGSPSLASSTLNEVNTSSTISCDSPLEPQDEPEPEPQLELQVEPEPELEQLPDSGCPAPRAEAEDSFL

Row | SMILES | % inhibition of total HDAC enzyme activity at 30 μM [1] [%] | GI50 [2] [nM] | Class I HDAC (P21 reporter assay) Fold Induction at 10 μM [3] [Fold] | GI50 [4] [nM]
1 | COc1cc2ncnc(Oc3ccc4c(C(=O)Nc5ccc(C)cc5N)cccc4c3)c2cc1OC [Example 18, N-(2-amino-4-methylphenyl)-6-(6,7-dimethoxyquinazolin-4-yloxy)-1-naphthamide] | 17.1 | 15 | 1.1 | 7
2 | COc1ccc(NC(=O)c2cccc3cc(Oc4ncnc5cc(OC)c(OC)cc45)ccc23)c(N)c1 [Example 19, N-(2-amino-4-methoxyphenyl)-6-(6,7-dimethoxyquinazolin-4-yloxy)-1-naphthamide] | 21.9 | 11 | 1.4 | 23
3 | COc1cc2ncnc(Oc3ccc4c(C(=O)Nc5ccc(Cl)cc5N)cccc4c3)c2cc1OC [Example 20, N-(2-amino-4-chlorophenyl)-6-(6,7-dimethoxyquinazolin-4-yloxy)-1-naphthamide] | 21.9 | 23 | 1.5 | 6
4 | COc1cc2ncnc(Oc3ccc4c(C(=O)Nc5ccc(Br)cc5N)cccc4c3)c2cc1OC [Example 21, N-(2-amino-4-bromophenyl)-6-(6,7-dimethoxyquinazolin-4-yloxy)-1-naphthamide] | 18.6 | 19 | 1.1 | 5
5 | COc1cc2ncnc(Oc3ccc4c(C(=O)Nc5ccc(C(F)(F)F)cc5N)cccc4c3)c2cc1OC [Example 22, N-(2-amino-4-trifluoromethylphenyl)-6-(6,7-dimethoxyquinazolin-4-yloxy)-1-naphthamide] | 17 | 372 | 1.1 | 3
6 | Nc1ccccc1NC(=O)c1cccc2cc(Oc3ccnc4ccccc34)ccc12 [Example 39, N-(2-aminophenyl)-6-(quinolin-4-yloxy)-1-naphthamide] | 15.9 | 32 | 1.2 | 107
7 | Cc1cccc2c(Oc3ccc4c(C(=O)Nc5ccccc5N)cccc4c3)ccnc12 [Example 40, N-(2-aminophenyl)-6-(8-methylquinolin-4-yloxy)-1-naphthamide] | 22.2 |  | 1.3 | 1000
8 | Nc1ccccc1NC(=O)c1cccc2cc(Oc3ccnc4cc(Cl)ccc34)ccc12 [Example 41, N-(2-aminophenyl)-6-(7-chloroquinolin-4-yloxy)-1-naphthamide] | 19.3 | 479 | 1.1 | 105
9 | Nc1ccccc1NC(=O)c1cccc2cc(Oc3ccnc4c(C(F)(F)F)cccc34)ccc12 [Example 42, N-(2-aminophenyl)-6-(8-trifluoromethylquinolin-4-yloxy)-1-naphthamide] | 6.2 | 48 | 1.3 | 1000
10 | Nc1ccccc1NC(=O)c1ccc(CNC(=O)c2cccc3cc(Oc4ccnc5cc(Cl)ccc45)ccc23)cc1 [Example 43, N-(4-((2-aminophenyl)carbamoyl)benzyl)-6-(7-chloroquinolin-4-yloxy)-1-naphthamide] | 38.7 |  | 6.1 | 288
